Source: patent US20240090503A1, “FUNGICIDAL OXADIAZOLES AND THEIR MIXTURES” (FMC CORPORATION, priority 2020, published 2024)
Where two headings read alike, the source gives them in different places. Marks after values point to notes of the source that are not given here.

Legend:
Format in all cases: in vivo
[1] = test system: Phakopsora pachyrhizi (the causal agent of Asian soybean rust); assay: Test E: compounds alone and mixtures sprayed on soybean seedlings, Asian soybean rust, observed and Colby-expected disease control; parameters: key to Test E Obsd: 100 = 100% disease control, 0 = no disease control; conditions: for pest or weed control at 161.74 ppm: 161.740 ppm
Excerpt: The general protocol for preparing test compositions for TEST E was as follows: Compound 316, Compound 376, Compound 225, Compound 229, Compound 257, Compound 394, Compound 506, Compound 507, Compound 508, Compound 509, Compound 511, Compound 512, methyl N-[[5-[1-[2,6-difluoro-4-(1-methylethyl)phenyl]-1H-pyrazol-3-yl]-2-methylphenyl]methyl]carbamate (b54.11a), methyl N-[[5-[l-(4-cyclopropyl-2,6-difluorophenyl)-1H-pyrazol-3-yl]-2-methylphenyl]methyl]carbamate (b54.11d), ethyl 1-[[4-[[(1Z)-2-ethoxy-3,3,3-trifluoro-1-propen-1-yl]oxy]phenyl]methyl]-1H-pyrazole-4-carboxylate (b54.12a), ethyl 1-[[4-[[2-(trifluoromethyl)-1,3-dioxolan-2-yl]methoxy]phenyl]methyl]-1H-pyrazole-4-carboxylate (b54.13a), azoxystrobin, benzovindiflupyr, bixafen, chlorothalonil, cyproconazole, epoxiconazole, fenpropidin, fenpropimorph, fluindapyr, flutriafol, fluxapyroxad, inpyrfluxam, metominostrobin, picoxystrobin, prothioconazole, pydiflumetofen, pyraclostrobin, tebuconazole and trifloxystrobin were obtained as unformulated, technical-grade materials. Copper hydroxide and mancozeb was obtained as a formulated product marketed under the trademarks KOCIDE 3000 and MANZATE, respectively. Unformulated materials were first dissolved in acetone and then suspended at the desired concentration (in ppm) in acetone and purified water (50/50 mixture by volume) containing 250 ppm of the surfactant Trem® 014 (polyhydric alcohol esters). Formulated materials were dispersed in sufficient water to give the desired concentration, and neither organic solvent nor surfactant was added to the suspension. The resulting test mixtures were then used in TEST E. The tests were run on four individual plants and the results reported as the mean average of the four plants.
The presence of a synergistic effect between two active ingredients can be established with the aid of the Colby equation (see Colby, S. R. “Calculating Synergistic and Antagonistic Responses of Herbicide Combinations”, Weeds, (1967), 15, 20-22):
Using the method of Colby, the presence of a synergistic interaction between two active ingredients is established by first calculating the predicted activity, p, of the mixture based on activities of the two components applied alone. If p is lower than the experimentally established effect, synergism has occurred. In the equation above, A is the fungicidal activity in percentage control of one component applied alone at rate x. The B term is the fungicidal activity in percentage control of the second component applied at rate y. The equation estimates p, the expected fungicidal activity of the mixture of A at rate x with B at rate y if their effects are strictly additive and no interaction has occurred.
The test mixture was sprayed to the point of run-off on soybean seedlings. The following day the seedlings were inoculated with a spore suspension of Phakopsora pachyrhizi (the causal agent of Asian soybean rust) and incubated in a saturated atmosphere at 22° C. for 24 h and then moved to a growth chamber at 22° C. for 8 days, after which time visual disease ratings were made.
Results for Test E are given below in Tables A-1 through K-2. Each table corresponds to a set of evaluations performed together at the same time. In each table, a rating of 100 indicates 100% disease control and a rating of 0 indicates no disease control (relative to the controls). Columns labeled “Obsd” indicate the average of results observed from test run on four individual plants. Columns labeled “Exp” indicate the expected value for each treatment mixture using the Colby equation, as described above.

[2] = test system: Phakopsora pachyrhizi (the causal agent of Asian soybean rust); assay: Test A: preventive spray on soybean seedlings, Asian soybean rust, visual disease rating; conditions: soybean seedlings
How it was run: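 Preventive test: soybean seedlings received a run-off spray of compound suspended at the set ppm in 50/50 acetone/water plus 250 ppm PEG400, and one day later a P. pachyrhizi spore inoculum. Visual scoring (0 none to 100 full disease control) followed 24 h saturated incubation and 8 days' growth chamber, both at 22° C.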

[3] = test system: Zymoseptoria tritici (the causal agent of wheat leaf blotch); assay: Test B: preventive spray on wheat seedlings, wheat leaf blotch, visual disease rating; conditions: wheat seedlings
How it was run: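 This is a preventive test: spray application preceded Zymoseptoria tritici spore inoculation by one day. Test suspensions were in acetone/water with 250 ppm PEG400 surfactant, at the listed ppm rate. After 48 h saturated humidity at 24° C and 17 days at 20° C, visual ratings scored control from 0 to 100%.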

[4] = test system: Puccinia recondita f. sp. tritici (the causal agent of wheat leaf rust); assay: Test C: preventive spray on wheat seedlings, wheat leaf rust, visual disease rating; conditions: wheat seedlings
How it was run: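 Wheat seedlings sprayed to run-off with compound in acetone/water (50/50) with 250 ppm PEG400, then inoculated with spores the following day. After 24 h saturated humidity at 20° C. and 6 days in growth chamber at 20° C., disease rated visually as % control relative to untreated controls.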

[5] = Phakopsora pachyrhizi, applied alone, read-out: Test E Obsd
[6] = Phakopsora pachyrhizi, fenpropidin alone, read-out: Test E Obsd
[7] = Table B-1, component (b) alone: bixafen 11.327, fluxapyroxad 2.757, fluindapyr 8.820 ppm
[8] = Table B-1, component (b) alone: bixafen 19.525, fluxapyroxad 4.748, fluindapyr 15.230 ppm
[9] = Table B-2, component (b) alone: bixafen 11.327, fluxapyroxad 2.757, fluindapyr 8.820 ppm
[10] = Table B-2, component (b) alone: bixafen 19.525, fluxapyroxad 4.748, fluindapyr 15.230 ppm
[11] = test suspension 10 ppm, 100 = 100% disease control, 0 = no control

Compound: inpyrfluxam [reference compound]
- Test E Obsd ([1]; inpyrfluxam alone, 0.448 ppm): 56
- Test E Obsd ([1]; inpyrfluxam alone, 1.059 ppm): 79

Compound: CON(C(=O)c1cn(C)nc1C(F)F)C(C)Cc1c(Cl)cc(Cl)cc1Cl (stereo not drawn) [pydiflumetofen, reference compound]
- Test E Obsd (disease control rating) ([1]; Table E-1, component (b) alone: epoxiconazole 46.795, pydiflumetofen 70.950 ppm): 0%
- Test E Obsd (disease control rating) ([1]; Table E-1, component (b) alone: epoxiconazole 89.631, pydiflumetofen 135.850 ppm): 73%
- Test E Obsd (disease control rating) ([1]; Table E-2, component (b) alone: epoxiconazole 46.795, pydiflumetofen 70.950 ppm): 0%
- Test E Obsd (disease control rating) ([1]; Table E-2, component (b) alone: epoxiconazole 89.631, pydiflumetofen 135.850 ppm): 73%
- Test E Obsd (disease control rating) ([1]; Table G-1, component (b) alone: pydiflumetofen 41.364, pyraclostrobin 45.860, metominostrobin 29.673 ppm): 49%
- Test E Obsd (disease control rating) ([1]; Table G-1, component (b) alone: pydiflumetofen 128.793, pyraclostrobin 137.503, metominostrobin 86.003 ppm): 36%
- Test E Obsd (disease control rating) ([1]; Table G-2, component (b) alone: pydiflumetofen 41.364, pyraclostrobin 45.860, metominostrobin 29.673 ppm): 49%
- Test E Obsd (disease control rating) ([1]; Table G-2, component (b) alone: pydiflumetofen 128.793, pyraclostrobin 137.503, metominostrobin 86.003 ppm): 36%

Compound: CO/C=C(/C(=O)OC)c1ccccc1COc1cccc(C(F)(F)F)n1 [picoxystrobin, reference compound]
- Test E Obsd (disease control rating) ([1]; Table A-1, component (b) alone: b54.13a 1.422, b54.12a 0.303, b54.11a 0.403, picoxystrobin 20.596 ppm): 73%
- Test E Obsd (disease control rating) ([1]; Table A-1, component (b) alone: b54.13a 2.276, b54.12a 0.489, b54.11a 0.652, picoxystrobin 38.865 ppm): 75%
- Test E Obsd (disease control rating) ([1]; Table A-2, component (b) alone: b54.13a 1.422, b54.12a 0.303, b54.11a 0.403, b54.11d 0.346, picoxystrobin 20.596 ppm): 73%
- Test E Obsd (disease control rating) ([1]; Table A-2, component (b) alone: b54.13a 2.276, b54.12a 0.489, b54.11a 0.652, b54.11d 0.764, picoxystrobin 33.865 ppm): 75%
- Test E Obsd ([1]; applied alone, 20.596 ppm): 28
- Test E Obsd ([1]; applied alone, 33.865 ppm): 43
- Test E Obsd ([1]; applied alone, 33.875 ppm): 43
- Test E Obsd ([1]; picoxystrobin alone, 20.596 ppm): 28
- Test E Obsd ([1]; picoxystrobin alone, 33.865 ppm): 43

Compound: CC(Cc1ccc(C(C)(C)C)cc1)CN1CCCCC1 (stereo not drawn) [fenpropidin, reference compound]
- pest or weed control at 78.393 ppm [1, 5]: 0%
- pest or weed control at 161.74 ppm [1, 5]: 52%
- pest or weed control at 78.393 ppm [1, 6]: 0%
- pest or weed control at 161.74 ppm [1, 6]: 52%

Compound: Cn1cc(C(=O)Nc2ccc(F)cc2-c2ccc(Cl)c(Cl)c2)c(C(F)F)n1 [bixafen, reference compound]
- Test E Obsd (disease control rating) [1, 7]: 54%
- Test E Obsd (disease control rating) [1, 8]: 55%
- Test E Obsd (disease control rating) [1, 9]: 54%
- Test E Obsd (disease control rating) [1, 10]: 55%

Compound: Cn1cc(C(=O)Nc2ccccc2-c2cc(F)c(F)c(F)c2)c(C(F)F)n1 [fluxapyroxad, reference compound]
- Test E Obsd (disease control rating) [1, 7]: 19%
- Test E Obsd (disease control rating) [1, 8]: 52%
- Test E Obsd (disease control rating) [1, 9]: 19%
- Test E Obsd (disease control rating) [1, 10]: 52%

Compound: CC1CC(C)(C)c2c(F)ccc(NC(=O)c3cn(C)nc3C(F)F)c21 (stereo not drawn) [fluindapyr, reference compound]
- Test E Obsd (disease control rating) [1, 7]: 61%
- Test E Obsd (disease control rating) [1, 8]: 79%
- Test E Obsd (disease control rating) [1, 9]: 61%
- Test E Obsd (disease control rating) [1, 10]: 79%

Compound: Cn1cc(C(=O)Nc2cccc3c2[C@@H]2CC[C@H]3C2=C(Cl)Cl)c(C(F)F)n1 (racemic) [benzovindiflupyr, reference compound]
- Test E Obsd (disease control rating) ([1]; Table F-1, component (b) alone: benzovindiflupyr 0.606, prothioconazole 10.165, chlorothalonil 138.129 ppm): 67%
- Test E Obsd (disease control rating) ([1]; Table F-1, component (b) alone: benzovindiflupyr 0.980, prothioconazole 16.339, chlorothalonil 222.081 ppm): 67%
- Test E Obsd (disease control rating) ([1]; Table F-2, component (b) alone: benzovindiflupyr 0.606, prothioconazole 10.165, chlorothalonil 138.129 ppm): 67%
- Test E Obsd (disease control rating) ([1]; Table F-2, component (b) alone: benzovindiflupyr 0.980, prothioconazole 16.339, chlorothalonil 222.081 ppm): 67%
- Test E Obsd ([1]; applied alone, 0.606 ppm): 51
- Test E Obsd ([1]; applied alone, 0.980 ppm): 68

Compound: N#Cc1c(Cl)c(Cl)c(Cl)c(C#N)c1Cl [chlorothalonil, reference compound]
- pest or weed control at 138.129 ppm ([1]; Phakopsora pachyrhizi, applied alone, 138.129 ppm, read-out: Test E Obsd): 76%
- pest or weed control at 222.081 ppm ([1]; Phakopsora pachyrhizi, applied alone, 222.081 ppm, read-out: Test E Obsd): 88%

Compound: OC(Cc1ccccc1Cl)(Cn1nc[nH]c1=S)C1(Cl)CC1 (stereo not drawn) [prothioconazole, reference compound]
- pest or weed control at 10.165 ppm ([1]; Phakopsora pachyrhizi, applied alone, 10.165 ppm, read-out: Test E Obsd): 34%
- pest or weed control at 16.339 ppm ([1]; Phakopsora pachyrhizi, applied alone, 16.339 ppm, read-out: Test E Obsd): 56%

Compound: O=C(NC1CC1)c1csc(Cc2ccc(-c3noc(C(F)(F)F)n3)cc2)n1 [compound 342]
- Test A disease control rating [2, 11]: 100%
- Test B disease control rating ([3]; test suspension 250 ppm): 99* %
- Test C disease control rating ([4]; test suspension 10 ppm): 100%

Compound: COC(=O)c1nncn1Cc1ccc(-c2noc(C(F)(F)F)n2)cc1 [compound 138]
- Test A disease control rating ([2]; test suspension 260 ppm): 100%
- Test B disease control rating ([3]; test suspension 260 ppm): 96%
- Test C disease control rating ([4]; test suspension 260 ppm): 100%

Compound: O=C(c1coc(Cc2ccc(-c3noc(C(F)(F)F)n3)cc2)n1)N1CCC(F)(F)CC1 [compound 228]
- Test A disease control rating [2, 11]: 100%
- Test B disease control rating ([3]; test suspension 250 ppm): 99* %
- Test C disease control rating ([4]; test suspension 10 ppm): 79%

Compound: O=C(NCC(F)(F)F)c1cnn(COc2ccc(-c3noc(C(F)(F)F)n3)cc2)c1 [compound 212]
- Test A disease control rating [2, 11]: 100%
- Test B disease control rating ([3]; test suspension 250 ppm): 79* %
- Test C disease control rating ([4]; test suspension 10 ppm): 100%

Compound: FC(F)(F)c1nc(-c2ccc(Cn3nc(Cl)c4ccccc43)cc2)no1 [compound 116]
- Test A disease control rating ([2]; test suspension 265 ppm): 100%
- Test B disease control rating ([3]; test suspension 265 ppm): 25%
- Test C disease control rating ([4]; test suspension 265 ppm): 99%

Compound: Cn1c(C(F)(F)F)nn(CCCc2ccc(-c3noc(C(F)(F)F)n3)cc2)c1=O [compound 240]
- Test A disease control rating ([2]; test suspension 250 ppm): 100%
- Test B disease control rating ([3]; test suspension 250 ppm): 4%
- Test C disease control rating ([4]; test suspension 250 ppm): 100%

Compound: NC(=O)C1=NOC(Cc2ccc(-c3noc(C(F)(F)F)n3)cc2)C1 (stereo not drawn) [compound 164]
- Test A disease control rating ([2]; test suspension 250 ppm): 100%
- Test B disease control rating ([3]; test suspension 250 ppm): 88%
- Test C disease control rating ([4]; test suspension 250 ppm): 100%

Compound: CC(C)(C)NN1C(=O)C(Cl)=C(Oc2ccc(-c3noc(C(F)(F)F)n3)cc2)C1=O [compound 357]
- Test A disease control rating ([2]; test suspension 250 ppm): 98%
- Test B disease control rating ([3]; test suspension 250 ppm): 99* %
- Test C disease control rating ([4]; test suspension 250 ppm): 91%
